Tests used:
Male Wiga Wistar rats = test: Reversal of LY-404039-induced decrease of palpebral opening in apomorphine-challenged rats; format: in vivo, rat; conditions: rats, route PO (route cell empty for Co. 88 and 84); for ED50: Rattus norvegicus, read-out: ED50 APO LY-404039 (Reversal of LY-404039-induced decrease of palpebral opening in apomorphine challenged rats)
Method: 1) Reversal of LY-404039-Induced Decrease of Palpebral Opening in Apomorphine-Challenged Rats.
Male Wiga Wistar rats (Crl:WI; Charles River Germany; 220±40 g) were housed under standard laboratory conditions (21±2° C.; 50-65% relative humidity; light-dark cycle set at 12 h; lights on at 6.00 h) and fasted overnight prior to the start of the experiments (tap water remained available ad libitum). During the test period, they were housed in individual cages. Palpebral opening was scored every 5 min over the first hour after injection of apomorphine (1.0 mg/kg, i.v.) in animals either pretreated or not pretreated with LY-404039 (2.5 mg/kg, s.c.) at 1 h prior to the apomorphine injection. The animals were also pretreated with test compound or solvent at a predefined interval before apomorphine challenge. The score system was: (5) exophthalmos, (4) wide open, (3) open for three-quarters, (2) half open, (1) open for one-quarter, (0) closed. The scores for palpebral opening were cumulated over the 60-min observation period.

rats = test: Reversal of the effect of the mGluR2 PAM JNJ-42153605-induced inhibition of scopolamine-induced hyperlocomotion; format: in vivo, rat; conditions: rats, route PO, criterion total distance >1500 cm; for ED50: Rattus norvegicus, read-out: ED50 SCOP JNJ-42153605 (Reversal of the effect of JNJ 42153605 on scopolamine-induced hyperlocomotion)
Method: 2) Reversal of the Effect of the mGluR2 PAM JNJ-42153605-Induced Inhibition of Scopolamine-Induced Hyperlocomotion
Motor activity was measured in microprocessor-based motor activity arenas (closed gray PVC cylinders with a height of 39 cm and a diameter of 31 cm). Each arena was placed on an infrared LED (8×8 LEDs) lit box (white PVC squared box; 40×40 cm^2; height 12.5 cm. An infrared-sensitive tube camera and a white light source were mounted to the ceiling above the observation chamber to track the animal. The total distance traveled (cm) was recorded and analyzed using the Noldus Ethovision XT Video Tracking System (Version 7.0.418; Noldus, Wageningen, The Netherlands). The intensity of the light within the activity cages (measured in the centre at the level of the floor) ranged between 4 and 8 LUX.
The rats were pretreated with test compound or vehicle at 60 min before the start of the activity recordings and placed into individual cages. The rats were challenged with JNJ-42153605 (3-(cyclopropylmethyl)-7-(4-phenylpiperidin-1-yl)-8-(trifluoromethyl)[1,2,4]triazolo[4,3-a]pyridine; WO2010/130424; Cid et al. J. Med. Chem. 2012, 55, 8770-8789) (20 mg/kg, i.v.) 30 min before the start of the activity recording combined with scopolamine (0.16 mg/kg, i.v.) just before the start of the activity measurements. Immediately after the injection of scopolamine, the rats were placed into the activity monitors and total distance traveled over the first 30 min was measured.
For reversal of the inhibitory effect of JNJ-42153605 on the scopolamine-induced hyperlocomotion, the following all-or-none criteria were adopted: (1) reversal: total distance >1500 cm.

human mGlu2 receptor = human mGlu2 receptor (Homo sapiens, UniProt Q14416); test: [35S]GTPγS binding assay, mGluR2 negative allosteric modulation (membranes from CHO cells transfected with human mGlu2 receptor, glutamate ~EC80 60 μM); conditions: for IC50: GTPγS - hmGluR2 anGT pIC50, membranes with human mGlu2 receptor; for IC50 / GTPγS - hmGluR2 anGT pIC50: glutamate ~EC80 (60 μM), pIC50 = -log IC50 (M); for Emax: read-out: GTPγS - hmGluR2 anGT Emax, relative maximal effect: maximal % inhibition relative to the control glutamate response; for GTPγS - hmGluR2 anGT pIC50: membranes with human mGlu2 receptor; for GTPγS - hmGluR2 anGT Emax: relative maximal effect: maximal % inhibition relative to the control glutamate response;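 on all read-outs here: membranes preincubated 30 min at 30 °C with compound plus glutamate, then [35S]GTPγS (0.1 nM) incorporation measured over another 30 min at 30 °C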
Chain of human mGlu2 receptor (Q14416 19-872): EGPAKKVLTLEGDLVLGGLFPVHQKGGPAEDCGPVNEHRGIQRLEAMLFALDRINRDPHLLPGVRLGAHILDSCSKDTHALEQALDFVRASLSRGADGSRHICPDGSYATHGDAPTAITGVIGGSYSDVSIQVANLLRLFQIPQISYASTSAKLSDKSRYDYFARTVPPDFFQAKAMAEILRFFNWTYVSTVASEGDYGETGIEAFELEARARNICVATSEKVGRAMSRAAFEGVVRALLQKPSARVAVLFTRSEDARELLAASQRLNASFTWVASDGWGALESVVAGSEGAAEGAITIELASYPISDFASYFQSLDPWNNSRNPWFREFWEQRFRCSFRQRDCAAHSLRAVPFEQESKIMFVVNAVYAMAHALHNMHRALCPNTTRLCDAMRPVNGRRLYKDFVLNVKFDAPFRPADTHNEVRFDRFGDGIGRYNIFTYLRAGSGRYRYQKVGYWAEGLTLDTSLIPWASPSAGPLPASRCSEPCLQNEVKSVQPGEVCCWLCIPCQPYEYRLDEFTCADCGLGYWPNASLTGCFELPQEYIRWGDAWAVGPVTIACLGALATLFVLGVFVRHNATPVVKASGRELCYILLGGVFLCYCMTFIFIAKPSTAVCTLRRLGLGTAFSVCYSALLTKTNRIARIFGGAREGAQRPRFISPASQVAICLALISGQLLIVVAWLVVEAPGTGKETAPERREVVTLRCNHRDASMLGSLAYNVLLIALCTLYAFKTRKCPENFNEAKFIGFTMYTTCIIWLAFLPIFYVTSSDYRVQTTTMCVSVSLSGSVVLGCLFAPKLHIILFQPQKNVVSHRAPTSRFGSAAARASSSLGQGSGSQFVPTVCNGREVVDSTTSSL

Wiga rats = test: Induction of mydriasis (pupil diameter, test 1 and test 2); format: in vivo, rat; conditions: route PO, pupil diameter >25 units, maximum over 1, 2 or 3 h post-administration; for ED50: Rattus norvegicus, read-out: ED50 MYD Test 2 (Induction of mydriasis)
Method: 3) Induction of Mydriasis
The pupil diameter of Wiga rats was measured with a microscopic micrometer (1 unit=1/24 mm). Criteria for drug-induced effects: pupil diameter >25 units for mydriasis (in controls: 1.9%) 1 h post-administration of the test compound (test 1) or 1, 2 or 3 h post-administration of the test compound (test 2, wherein the maximum pupil diameter over the full 3 h period is reported).

melting point [°C] | IC50 (human mGlu2 receptor) [M] | Emax (human mGlu2 receptor) [%] | GTPγS - hmGluR2 anGT pIC50 (human mGlu2 receptor) | GTPγS - hmGluR2 anGT Emax (human mGlu2 receptor) [%] | SMILES | ED50 (Male Wiga Wistar rats) [mg/kg] | ED50 (rats) [mg/kg] | ED50 SCOP JNJ-42153605 (Reversal of the effect of JNJ 42153605 on scopolamine-induced hyperlocomotion) (rats) [mg/kg] | ED50 MYD Test 2 (Induction of mydriasis) (Wiga rats) [mg/kg] | ED50 (Wiga rats) [mg/kg] | ED50 APO LY-404039 (Reversal of LY-404039-induced decrease of palpebral opening in apomorphine challenged rats) (Male Wiga Wistar rats) [mg/kg]
249.5 | 2.45e-09 | 109 | – | – | Cc1ccncc1NC(=O)c1cnn2c1C(=O)N(c1ccc(C(F)(F)F)cc1)C[C@@H]2C [compound 14] | 0.13 | 0.13 | – | – | – | –
199.2 | 1.07e-08 | 113 | – | – | C[C@H]1CN(c2ccc(C(F)(F)F)c(F)c2)C(=O)c2c(C(=O)Nc3ccccn3)cnn21 [compound 20] | > 2.5 | > 2.5 | – | – | – | –
– | – | – | 8.72 | 108 | C[C@H]1CN(c2ccc(C(F)(F)F)c(F)c2)C(=O)c2c(C(=O)Nc3cccnc3)cnn21 [compound 21] | – | – | 0.32 | 7.9 | – | –
258.4 | 3.09e-09 | 112 | – | – | C[C@H]1CN(c2ccc(Cl)c(Cl)c2)C(=O)c2c(C(=O)Nc3ccccn3)cnn21 [compound 25] | > 10 | > 2.5 | – | – | – | –
– | – | – | 9.08 | 107 | C[C@H]1CN(c2ccc(Cl)c(Cl)c2)C(=O)c2c(C(=O)Nc3cccnc3)cnn21 [compound 26] | – | – | 0.32 | 5 | – | –
– | – | – | 9.09 | 108 | C[C@H]1CN(c2ccc(Cl)c(Cl)c2)C(=O)c2c(C(=O)Nc3cncc(F)c3)cnn21 [compound 27] | – | – | 0.32 | >10 | – | –
225 | 1.1e-09 | 111 | – | – | Cc1ccncc1NC(=O)c1cnn2c1C(=O)N(c1ccc(Cl)c(Cl)c1)C[C@@H]2C [compound 30] | – | 0.51 | – | – | 3.1 | –
227.3 | 3.98e-09 | 114 | – | – | Cc1cc(N2C[C@H](C)n3ncc(C(=O)Nc4ccccn4)c3C2=O)ccc1C(F)(F)F [compound 35] | > 10 | > 2.5 | – | – | – | –
156.85 | 8.51e-10 | 111 | – | – | Cc1cc(N2C[C@H](C)n3ncc(C(=O)Nc4cccnc4)c3C2=O)ccc1C(F)(F)F [compound 36, (7S)-7-Methyl-5-[3-methyl-4-(trifluoromethyl)phenyl]-4-oxo-N-(3-pyridyl)-6,7-dihydropyrazolo[1,5-a]pyrazine-3-carboxamide] | – | 0.2 | – | – | 20 | –
202.8 | 7.24e-10 | 108 | – | – | Cc1cncc(NC(=O)c2cnn3c2C(=O)N(c2ccc(C(F)(F)F)c(C)c2)C[C@@H]3C)c1 [compound 37] | > 0.63 | > 0.63 | – | – | – | –
186.5 | 1.15e-09 | 108 | – | – | Cc1ccncc1NC(=O)c1cnn2c1C(=O)N(c1ccc(C(F)(F)F)c(C)c1)C[C@@H]2C [compound 38] | – | 0.2 | – | – | 2 | –
144.6 | 9.33e-10 | 112 | – | – | Cc1cc(N2C[C@H](C)n3ncc(C(=O)Nc4cncc(F)c4)c3C2=O)ccc1C(F)(F)F [compound 39] | – | 0.32 | – | – | 5 | –
194.8 | 2.14e-09 | 111 | – | – | COc1cncc(NC(=O)c2cnn3c2C(=O)N(c2ccc(C(F)(F)F)c(C)c2)C[C@@H]3C)c1 [compound 40] | > 0.63 | > 0.63 | – | – | – | –
180 | 6.17e-09 | 106 | – | – | C[C@H]1CN(c2ccc(Cl)cc2)C(=O)c2c(C(=O)Nc3cccnc3)cnn21 [compound 41] | 0.32 | > 0.63 | – | – | – | –
223 | 2.75e-09 | 113 | – | – | C[C@H]1CN(c2ccc(C(F)(F)F)c(Cl)c2)C(=O)c2c(C(=O)Nc3ccccn3)cnn21 [compound 46] | 1.99 | > 2.5 | – | – | – | –
140.43 | 1.07e-09 | 109 | – | – | C[C@H]1CN(c2ccc(C(F)(F)F)c(Cl)c2)C(=O)c2c(C(=O)Nc3cccnc3)cnn21 [compound 47] | – | 0.5 | – | – | 32 | –
225 | 2.95e-09 | 119 | – | – | C[C@H]1CN(c2ccc(C(F)(F)F)cc2)C(=O)c2c(C(=O)Nc3cnccn3)cnn21 [compound 100] | 0.32 | 0.2 | – | – | – | –
– | – | – | 8.57 | 118 | Cc1cc(NC(=O)c2cnn3c2C(=O)N(c2ccc(C(F)(F)F)cc2)C[C@@H]3C)cc(C)n1 [compound 101] | – | – | 0.5 | >10 | – | 0.79
– | – | – | 8.91 | 109 | Cc1cc(NC(=O)c2cnn3c2C(=O)N(c2ccc(C(F)(F)F)c(Cl)c2)C[C@@H]3C)ccn1 [compound 109] | – | – | 0.32 | 32 | – | –
213.63 | 1.35e-09 | 109 | – | – | C[C@H]1CN(c2ccc(Cl)c(Cl)c2)C(=O)c2c(C(=O)Nc3cnccn3)cnn21 [compound 116] | – | 0.05 | – | – | 5 | –
259 | 3.72e-09 | 105 | – | – | COc1cc(N2C[C@H](C)n3ncc(C(=O)Nc4cncc(F)c4)c3C2=O)ccc1C(F)(F)F [compound 117] | – | 0.51 | – | – | > 10 | –
194.5 | 2.24e-09 | 107 | – | – | Cc1c(F)cncc1NC(=O)c1cnn2c1C(=O)N(c1ccc(C(F)(F)F)cc1)C[C@@H]2C [compound 124, (7S)—N-(5-Fluoro-4-methyl-3-pyridyl)-7-methyl-4-oxo-5-[4-(trifluoromethyl)phenyl]-6,7-dihydropyrazolo[1,5-a]pyrazine-3-carboxamide] | – | 0.2 | – | – | > 40 | –
229.17 | 1.17e-09 | 108 | – | – | Cc1cncc(NC(=O)c2cnn3c2C(=O)N(c2ccc(C(F)(F)F)c(Cl)c2)C[C@@H]3C)c1C [compound 126] | > 0.63 | > 0.63 | – | – | – | –
197.8 | 4.79e-09 | 114 | – | – | COc1cncc(NC(=O)c2cnn3c2C(=O)N(c2ccc(C(F)(F)F)cc2)C[C@@H]3C)c1 [compound 144] | 1.99 | 1.01 | – | – | – | –
250.1 | 6.76e-09 | 109 | – | – | C[C@H]1CN(c2ccc(Cl)cc2)C(=O)c2c(C(=O)Nc3cnccn3)cnn21 [compound 162] | – | 0.13 | – | – | > 10 | –

Reference: patent US20200121677A1, “SUBSTITUTED 6,7-DIHYDROPYRAZOLO[1,5-a]PYRAZINES AS NEGATIVE ALLOSTERIC MODULATORS OF MGLUR2 RECEPTORS” (Janssen Pharmaceutica NV, priority 2014, published 2020)
